System: hPSC-derived beta cells
Test: Perfusion assay of dynamic human insulin secretion in vitro
Type: cell-based
Settings: human insulin ELISA
Protocol: Mature beta cells are functionally defined by their rapid response to elevated glucose. Secretion of human insulin by beta cells at the end of BC step 2 was measured as repeated responses to 20 mM glucose±1 μM exendin-4 or ±the anti-diabetic sulfonylurea compound Tolbutamide within a perfusion system.
Briefly, groups of 300 hand-picked, clusters of hESC- or hiPSC-derived cell clusters were suspended with beads (Bio-Rad #150-4124) in plastic chambers of Biorep PERFUSION SYSTEM (Biorep #PERI-4.2). Under temperature- and CO2-controlled conditions, the cells were perfused at 0.5 ml min-1 with a Krebs buffer. Prior to sample collection, cells were equilibrated under basal (2 mM glucose) conditions for 1 h. During perfusion cells were exposed to repeated challenges with 20 mM glucose±1 μM exendin-4 or ±100 μM Tolbutamide. At the end of perfusion, cells were exposed to cAMP-elevating agents on top of 20 mM glucose. Insulin secretion was measured by human insulin ELISA (Mercodia).

Molecule | effect on insulin secretion (100 μM Tolbutamide with 20 mM glucose, day 7 of BC step 2) | level of insulin secretion (1 μM exendin-4 with 20 mM glucose, day 3 and day 7 of BC step 2)
CCCCNC(=O)NS(=O)(=O)c1ccc(C)cc1 [tolbutamide, Tolbutamide] | significant additive effect | 
exendin-4 |  | increased the level of insulin secretion
